Experimental data: patent publication US20230233425A1, “USE OF VOLATILE COMPOSITIONS TO LIMIT OR ELIMINATE THE PERCEPTION OF MALODOR” (Firmenich SA, priority 2017, published 2023)
pIC50: −log10 of the molar value.

Columns and labels:
[1] = molecular target: T1, OR51E1 olfactory receptor (Homo sapiens, UniProt Q8TCB6); experiment: Butyric acid olfactory receptor antagonist cell-based dose-response vs butyric acid EC80; settings: Table 20, spiro analogues; for Emax: read-out: Inhibition (%)
T1 construct: expressed in transfected cells
T1 sequence (Q8TCB6 1-318): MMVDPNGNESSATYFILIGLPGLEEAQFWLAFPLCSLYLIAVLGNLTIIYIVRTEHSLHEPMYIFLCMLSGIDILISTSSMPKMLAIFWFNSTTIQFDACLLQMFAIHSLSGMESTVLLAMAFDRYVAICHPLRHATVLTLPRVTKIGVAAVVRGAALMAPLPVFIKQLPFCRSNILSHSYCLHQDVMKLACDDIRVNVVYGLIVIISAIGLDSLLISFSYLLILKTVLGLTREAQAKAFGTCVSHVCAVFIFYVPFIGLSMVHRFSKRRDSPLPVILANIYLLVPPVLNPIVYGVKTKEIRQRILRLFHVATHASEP

[2] = tested on: butyric acid malodor perception; experiment: Human sensory panel, perceived intensity of butyric acid; assay type: in vivo; settings: Table 20
Experimental: The pleasantness of the compounds delivered alone (triangles, dashed-line) and in a mixture with butyric acid at isointense concentrations (squares, solid line). Many of these compounds are shown to inhibit the activity of a butyric acid olfactory receptor.
Malodor receptor antagonist systems and compositions were evaluated at a gas phase concentration of 3.4 microg/1 air. The sensory method to evaluate compositions required the use of specially designed air dilution olfactometers to achieve well controlled and stable gas phase concentrations of the compositions and of the malodor to the group of test subjects.
The 30 subjects first evaluated the malodor reconstitution alone and then rated the 3 attributes “Freshness”, “Pleasantness” and “malodor” (the malodor character) on a 0 to 10 scale. The next evaluation was performed 30 seconds later to avoid odor adaptation, the malodor reconstitution was injected together with the test composition in the olfactometer. Ratings for the same descriptors recorded.

SMILES | pIC50 [1] | Emax [1] | Sensory Performance (%) [2]
CC(=O)OC1C(C)(C)CCCC12C(C)C=CCC2C (stereo not shown) | 4.14 | 72% | 43%
CC(=O)OC1C(C)(C)CCCC12CC(C)C(C)C2 (stereo not shown) | 4.29 | 62% | 50%
C=C(C)CC1(CC(=C)C)CCCC(C)(C)C1=O [2,2-dimethyl-6,6-bis(2-methylprop-2-enyl)cyclohexan-1-one] | 4.33 | 103% | 50%
CC1=C(C)CC2(CCCC(C)(C)C2O)C1 (stereo not shown) [2,3,9,9-tetramethylspiro[4.5]dec-2-en-10-ol] | 4.10 | 16% | 60%
CC1=C(C)CC2(CCCC(C)(C)C2=O)C1 [2,3,9,9-tetramethylspiro[4.5]dec-2-en-10-one] |  |  | 56%
CC(=O)OC1C(C)(C)CCCC12CC(C)=C(C)C2 (stereo not shown) [(2,3,9,9-tetramethylspiro[4.5]dec-2-en-10-yl) acetate] | < 3.22 | 116% | 40%
